Results taken from PubChem BioAssay (NCI).
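Five concentrations, 48 hours, 96-well plates. GI50 = concentration required for 50% inhibition of growth. TGI: total growth inhibition.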

Tests used:
Assay in all cases: NCI-60 cell line screen, 48 h
UO-31 renal = tested on: UO-31 renal
RXF 393 renal = tested on: RXF 393 renal
SK-MEL-5 melanoma = tested on: SK-MEL-5 melanoma
KM12 colon = tested on: KM12 colon
EKVX NSCLC = tested on: EKVX NSCLC
KM20L2 colon = tested on: KM20L2 colon
DMS 114 small cell lung = tested on: DMS 114 small cell lung
HOP-18 NSCLC = tested on: HOP-18 NSCLC
SNB-19 CNS = tested on: SNB-19 CNS
MOLT-4 leukemia = tested on: MOLT-4 leukemia
SW-620 colon = tested on: SW-620 colon
HCC-2998 colon = tested on: HCC-2998 colon
LXFL 529 NSCLC = tested on: LXFL 529 NSCLC
CCRF-CEM leukemia = tested on: CCRF-CEM leukemia
TK-10 renal = tested on: TK-10 renal
SF-295 CNS = tested on: SF-295 CNS
OVCAR-3 ovarian = tested on: OVCAR-3 ovarian
OVCAR-5 ovarian = tested on: OVCAR-5 ovarian
HL-60(TB) leukemia = tested on: HL-60(TB) leukemia
IGROV1 ovarian = tested on: IGROV1 ovarian
SN12C renal = tested on: SN12C renal
HOP-62 NSCLC = tested on: HOP-62 NSCLC
SNB-75 CNS = tested on: SNB-75 CNS
UACC-257 melanoma = tested on: UACC-257 melanoma
DLD-1 colon = tested on: DLD-1 colon
SF-268 CNS = tested on: SF-268 CNS
HCT-15 colon = tested on: HCT-15 colon
HT29 colon = tested on: HT29 colon
SNB-78 CNS = tested on: SNB-78 CNS
M19-MEL melanoma = tested on: M19-MEL melanoma
DMS 273 small cell lung = tested on: DMS 273 small cell lung
SK-MEL-28 melanoma = tested on: SK-MEL-28 melanoma
HCT-116 colon = tested on: HCT-116 colon
HOP-92 NSCLC = tested on: HOP-92 NSCLC
SK-OV-3 ovarian = tested on: SK-OV-3 ovarian
NCI-H460 lung = tested on: NCI-H460 lung
CAKI-1 renal = tested on: CAKI-1 renal
UACC-62 melanoma = tested on: UACC-62 melanoma
SF-539 CNS = tested on: SF-539 CNS
A549 NSCLC = tested on: A549 NSCLC
U251 CNS = tested on: U251 CNS
SK-MEL-2 melanoma = tested on: SK-MEL-2 melanoma
OVCAR-4 ovarian = tested on: OVCAR-4 ovarian
786-0 renal = tested on: 786-0 renal
ACHN renal = tested on: ACHN renal
NCI-H522 lung = tested on: NCI-H522 lung
RPMI-8226 leukemia = tested on: RPMI-8226 leukemia
OVCAR-8 ovarian = tested on: OVCAR-8 ovarian
K-562 leukemia = tested on: K-562 leukemia
A498 renal = tested on: A498 renal
LOX IMVI melanoma = tested on: LOX IMVI melanoma
MALME-3M melanoma = tested on: MALME-3M melanoma
M14 melanoma = tested on: M14 melanoma
NCI-H23 lung = tested on: NCI-H23 lung
COLO 205 colon = tested on: COLO 205 colon
NCI-H226 lung = tested on: NCI-H226 lung
XF 498 CNS = tested on: XF 498 CNS
SR leukemia = tested on: SR leukemia

c1ccc2c(c1)nnn1c3cnccc3nc21
TGI (UO-31 renal): > 100 µM
TGI (RXF 393 renal): 66.3 µM
TGI (SK-MEL-5 melanoma): > 100 µM
TGI (KM12 colon): 64.8 µM
TGI (EKVX NSCLC): > 100 µM
TGI (KM20L2 colon): > 100 µM
TGI (DMS 114 small cell lung): 69.5 µM
TGI (HOP-18 NSCLC): > 100 µM
TGI (SNB-19 CNS): > 100 µM
TGI (MOLT-4 leukemia): 54.9 µM
TGI (SW-620 colon): > 100 µM
TGI (HCC-2998 colon): > 100 µM
TGI (LXFL 529 NSCLC): > 100 µM
TGI (CCRF-CEM leukemia): 44.3 µM
TGI (TK-10 renal): 94.7 µM
TGI (SF-295 CNS): > 100 µM
TGI (OVCAR-3 ovarian): 55.8 µM
TGI (OVCAR-5 ovarian): > 100 µM
TGI (HL-60(TB) leukemia): 33 µM
TGI (IGROV1 ovarian): > 100 µM
TGI (SN12C renal): > 100 µM
TGI (HOP-62 NSCLC): > 100 µM
TGI (SNB-75 CNS): > 100 µM
TGI (UACC-257 melanoma): > 100 µM
TGI (DLD-1 colon): > 100 µM
TGI (SF-268 CNS): > 100 µM
TGI (HCT-15 colon): 80 µM
TGI (HT29 colon): 80.3 µM
TGI (SNB-78 CNS): > 100 µM
TGI (M19-MEL melanoma): > 100 µM
TGI (DMS 273 small cell lung): 36 µM
TGI (SK-MEL-28 melanoma): > 100 µM
TGI (HCT-116 colon): > 100 µM
TGI (HOP-92 NSCLC): 67 µM
TGI (SK-OV-3 ovarian): > 100 µM
TGI (NCI-H460 lung): 37.4 µM
TGI (CAKI-1 renal): > 100 µM
TGI (UACC-62 melanoma): > 100 µM
TGI (SF-539 CNS): 97.2 µM
TGI (A549 NSCLC): > 100 µM
TGI (U251 CNS): > 100 µM
TGI (SK-MEL-2 melanoma): > 100 µM
TGI (OVCAR-4 ovarian): 96.6 µM
TGI (786-0 renal): > 100 µM
TGI (ACHN renal): > 100 µM
TGI (NCI-H522 lung): 28.4 µM
TGI (RPMI-8226 leukemia): 58.8 µM
TGI (OVCAR-8 ovarian): > 100 µM
TGI (K-562 leukemia): 69.6 µM
TGI (A498 renal): > 100 µM
TGI (LOX IMVI melanoma): > 100 µM
TGI (MALME-3M melanoma): > 100 µM
TGI (M14 melanoma): > 100 µM
TGI (NCI-H23 lung): 69.4 µM
TGI (COLO 205 colon): 46.1 µM

CCN(CC)/[N+]([O-])=N/OC
TGI (UO-31 renal): > 100 µM
TGI (RXF 393 renal): > 100 µM
TGI (SK-MEL-5 melanoma): > 100 µM
TGI (KM12 colon): > 100 µM
TGI (EKVX NSCLC): > 100 µM
TGI (NCI-H226 lung): > 100 µM
TGI (KM20L2 colon): > 100 µM
TGI (SNB-19 CNS): > 100 µM
TGI (MOLT-4 leukemia): > 100 µM
TGI (SW-620 colon): > 100 µM
TGI (HCC-2998 colon): > 100 µM
TGI (LXFL 529 NSCLC): > 100 µM
TGI (XF 498 CNS): > 100 µM
TGI (CCRF-CEM leukemia): > 100 µM
TGI (TK-10 renal): > 100 µM
TGI (SF-295 CNS): > 100 µM
TGI (OVCAR-3 ovarian): > 100 µM
TGI (OVCAR-5 ovarian): > 100 µM
TGI (HL-60(TB) leukemia): > 100 µM
TGI (IGROV1 ovarian): > 100 µM
TGI (SN12C renal): > 100 µM
TGI (HOP-62 NSCLC): > 100 µM
TGI (UACC-257 melanoma): > 100 µM
TGI (SF-268 CNS): > 100 µM
TGI (HCT-15 colon): > 100 µM
TGI (HT29 colon): > 100 µM
TGI (SNB-78 CNS): > 100 µM
TGI (M19-MEL melanoma): > 100 µM
TGI (DMS 273 small cell lung): > 100 µM
TGI (SK-MEL-28 melanoma): > 100 µM
TGI (SR leukemia): > 100 µM
TGI (HCT-116 colon): > 100 µM
TGI (HOP-92 NSCLC): > 100 µM
TGI (SK-OV-3 ovarian): > 100 µM
TGI (NCI-H460 lung): > 100 µM
TGI (UACC-62 melanoma): > 100 µM
TGI (SF-539 CNS): > 100 µM
TGI (A549 NSCLC): > 100 µM
TGI (U251 CNS): > 100 µM
TGI (SK-MEL-2 melanoma): > 100 µM
TGI (ACHN renal): > 100 µM
TGI (NCI-H522 lung): > 100 µM
TGI (OVCAR-8 ovarian): > 100 µM
TGI (K-562 leukemia): > 100 µM
TGI (A498 renal): > 100 µM
TGI (LOX IMVI melanoma): > 100 µM
TGI (M14 melanoma): > 100 µM
TGI (NCI-H23 lung): > 100 µM

CC(=O)NC(ON1C(=O)COc2ccccc21)C(Cl)(Cl)Cl (centres undefined)
TGI (UO-31 renal): > 100 µM
TGI (KM12 colon): > 100 µM
TGI (NCI-H226 lung): 88.1 µM
TGI (KM20L2 colon): > 100 µM
TGI (SNB-19 CNS): > 100 µM
TGI (MOLT-4 leukemia): > 100 µM
TGI (SW-620 colon): > 100 µM
TGI (HCC-2998 colon): > 100 µM
TGI (LXFL 529 NSCLC): > 100 µM
TGI (XF 498 CNS): > 100 µM
TGI (TK-10 renal): > 100 µM
TGI (SF-295 CNS): > 100 µM
TGI (OVCAR-3 ovarian): > 100 µM
TGI (OVCAR-5 ovarian): > 100 µM
TGI (HL-60(TB) leukemia): > 100 µM
TGI (IGROV1 ovarian): > 100 µM
TGI (SN12C renal): > 100 µM
TGI (HOP-62 NSCLC): > 100 µM
TGI (SNB-75 CNS): > 100 µM
TGI (UACC-257 melanoma): > 100 µM
TGI (DLD-1 colon): > 100 µM
TGI (SF-268 CNS): > 100 µM
TGI (HCT-15 colon): > 100 µM
TGI (HT29 colon): > 100 µM
TGI (SNB-78 CNS): > 100 µM
TGI (DMS 273 small cell lung): > 100 µM
TGI (SK-MEL-28 melanoma): > 100 µM
TGI (SR leukemia): > 100 µM
TGI (HCT-116 colon): > 100 µM
TGI (HOP-92 NSCLC): > 100 µM
TGI (SK-OV-3 ovarian): > 100 µM
TGI (NCI-H460 lung): > 100 µM
TGI (CAKI-1 renal): > 100 µM
TGI (UACC-62 melanoma): > 100 µM
TGI (SF-539 CNS): > 100 µM
TGI (A549 NSCLC): > 100 µM
TGI (U251 CNS): > 100 µM
TGI (SK-MEL-2 melanoma): > 100 µM
TGI (OVCAR-4 ovarian): > 100 µM
TGI (786-0 renal): > 100 µM
TGI (ACHN renal): > 100 µM
TGI (NCI-H522 lung): > 100 µM
TGI (RPMI-8226 leukemia): > 100 µM
TGI (OVCAR-8 ovarian): > 100 µM
TGI (K-562 leukemia): > 100 µM
TGI (LOX IMVI melanoma): > 100 µM
TGI (MALME-3M melanoma): > 100 µM
TGI (M14 melanoma): > 100 µM
TGI (NCI-H23 lung): > 100 µM
TGI (COLO 205 colon): > 100 µM

COc1cccc(/C=N/[N-]C(N)=O)c1[O-].[Cu+2].[OH3+].c1cnc2c(c1)ccc1cccnc12
TGI (UO-31 renal): 38.2 µM
TGI (SK-MEL-5 melanoma): 16.1 µM
TGI (KM12 colon): 47.1 µM
TGI (EKVX NSCLC): 34.4 µM
TGI (NCI-H226 lung): 42.5 µM
TGI (KM20L2 colon): > 100 µM
TGI (SNB-19 CNS): 34.2 µM
TGI (MOLT-4 leukemia): > 100 µM
TGI (SW-620 colon): > 100 µM
TGI (HCC-2998 colon): 49.1 µM
GI50 (XF 498 CNS): 2.3 µM
TGI (XF 498 CNS): 6.36 µM
TGI (CCRF-CEM leukemia): 66.2 µM
TGI (TK-10 renal): 30.4 µM
TGI (SF-295 CNS): 51.2 µM
TGI (OVCAR-3 ovarian): 36.1 µM
TGI (OVCAR-5 ovarian): > 100 µM
GI50 (HL-60(TB) leukemia): 20 µM
TGI (HL-60(TB) leukemia): 48.7 µM
TGI (IGROV1 ovarian): 45.7 µM
TGI (SN12C renal): > 100 µM
TGI (HOP-62 NSCLC): 36 µM
TGI (SNB-75 CNS): 24.4 µM
TGI (UACC-257 melanoma): 34.5 µM
TGI (SF-268 CNS): 60.7 µM
TGI (HCT-15 colon): > 100 µM
TGI (HT29 colon): 75.5 µM
TGI (SK-MEL-28 melanoma): 29.7 µM
TGI (SR leukemia): > 100 µM
TGI (HCT-116 colon): 27.8 µM
TGI (HOP-92 NSCLC): 18.2 µM
TGI (SK-OV-3 ovarian): 25.2 µM
TGI (NCI-H460 lung): 79.9 µM
TGI (CAKI-1 renal): 33.9 µM
TGI (UACC-62 melanoma): 22.3 µM
TGI (SF-539 CNS): 21.6 µM
TGI (A549 NSCLC): 28.7 µM
TGI (U251 CNS): 17.7 µM
TGI (SK-MEL-2 melanoma): 32.1 µM
TGI (OVCAR-4 ovarian): 24.7 µM
TGI (786-0 renal): 20.2 µM
TGI (ACHN renal): 40.3 µM
TGI (RPMI-8226 leukemia): 91.4 µM
TGI (OVCAR-8 ovarian): 31.9 µM
TGI (K-562 leukemia): 39.3 µM
TGI (A498 renal): 21.8 µM
TGI (LOX IMVI melanoma): 48.2 µM
TGI (MALME-3M melanoma): 33.3 µM
TGI (M14 melanoma): 28.8 µM
TGI (NCI-H23 lung): 15.8 µM
TGI (COLO 205 colon): 32.5 µM
